Measured values taken from ChEMBL document CHEMBL1129578, “Tetrahydronaphthalenes: influence of heterocyclic substituents on inhibition of steroid enzymes P450 arom and P450 17” (J Med Chem, 1996).

Key:
[1] = target: T1, Steroid 17-alpha-hydroxylase/17,20 lyase (Rattus norvegicus, UniProt P11715)
T1 sequence (P11715 whole entry): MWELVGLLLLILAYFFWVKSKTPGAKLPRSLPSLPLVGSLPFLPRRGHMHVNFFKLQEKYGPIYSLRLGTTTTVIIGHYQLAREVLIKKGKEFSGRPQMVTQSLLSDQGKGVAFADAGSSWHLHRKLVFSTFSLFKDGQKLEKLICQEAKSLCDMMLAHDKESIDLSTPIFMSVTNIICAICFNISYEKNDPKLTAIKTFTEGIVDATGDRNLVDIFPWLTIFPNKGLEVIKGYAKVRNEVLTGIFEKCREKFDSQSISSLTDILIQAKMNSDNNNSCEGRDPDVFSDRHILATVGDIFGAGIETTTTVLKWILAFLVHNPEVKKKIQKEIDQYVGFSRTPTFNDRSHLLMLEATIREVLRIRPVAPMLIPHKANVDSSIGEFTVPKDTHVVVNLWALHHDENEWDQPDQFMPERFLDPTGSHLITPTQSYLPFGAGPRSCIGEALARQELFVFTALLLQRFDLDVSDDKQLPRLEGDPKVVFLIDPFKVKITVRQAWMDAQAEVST
Description: In vitro inhibitory activity against Steroidgenic Cytochrome P450 17 alpha using rat testicular microsomes.

[2] = target: T2, Cytochrome P450 11B2, mitochondrial (Homo sapiens, UniProt P19099); conditions: Adrenal gland
T2 sequence (P19099 whole entry): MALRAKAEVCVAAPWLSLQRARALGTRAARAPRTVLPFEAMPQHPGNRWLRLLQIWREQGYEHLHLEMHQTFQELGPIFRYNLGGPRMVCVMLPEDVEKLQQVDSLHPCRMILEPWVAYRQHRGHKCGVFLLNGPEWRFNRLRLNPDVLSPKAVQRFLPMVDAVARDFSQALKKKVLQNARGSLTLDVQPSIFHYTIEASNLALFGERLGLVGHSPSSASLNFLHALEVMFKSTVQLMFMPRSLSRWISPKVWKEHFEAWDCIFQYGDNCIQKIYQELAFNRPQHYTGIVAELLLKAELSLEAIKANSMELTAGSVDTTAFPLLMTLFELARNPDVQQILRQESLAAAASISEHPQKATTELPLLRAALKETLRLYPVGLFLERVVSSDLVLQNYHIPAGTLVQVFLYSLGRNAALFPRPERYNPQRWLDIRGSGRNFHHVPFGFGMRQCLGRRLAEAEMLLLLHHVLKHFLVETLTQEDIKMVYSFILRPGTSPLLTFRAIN
Description: Inhibitory activity against Steroidgenic Cytochrome P450 C18 using Bovine adrenal mitochondria

Row | IC50 [1] | IC50 [2] | Structure (SMILES)
1 | < 10 µM | – | O=C1/C(=C/c2cccnn2)CCc2ccccc21
2 | < 10 µM | – | c1ccc(C2C3CCc4ccccc4C32)nc1 (centres undefined)
3 | < 10 µM | – | O=C1/C(=C/c2ccsc2)CCc2ccccc21
4 | < 10 µM | – | O=C1c2ccccc2CCC1C(O)c1ccncn1 (centres undefined)
5 | 48 µM | – | O=C1/C(=C/c2cccnc2)CCc2ccccc21
6 | < 10 µM | – | c1ccc(C2C3CCc4ccccc4C32)cc1 (centres undefined)
7 | < 10 µM | – | O=C1c2ccccc2CCC1C(O)c1ccnnc1 (centres undefined)
8 | 21 µM | – | O=C1/C(=C/c2cncs2)CCc2ccccc21
9 | < 10 µM | – | O=C1c2ccccc2CCC1C(O)c1cnccn1 (centres undefined)
10 | < 10 µM | – | O=C1c2ccccc2CCC1C(O)c1cccnn1 (centres undefined)
11 | < 10 µM | – | O=C1/C(=C/c2ccccc2)CCc2ccccc21
12 | 36 µM | – | c1ccc2c(c1)CCC1C(c3ccncc3)C21 (centres undefined)
13 | < 10 µM | – | O=C1/C(=C/c2cc[nH]n2)CCc2ccccc21
14 | < 10 µM | – | O=C1/C(=C/c2ccccn2)CCc2ccccc21
15 | < 10 µM | – | O=C1/C(=C/c2ccnnc2)CCc2ccccc21
16 | < 10 µM | < 10 µM | c1ccc2c(c1)CCC1C(c3ccsc3)C21 (centres undefined)
17 | 87 µM | – | c1cncc(C2C3CCc4ccccc4C32)c1 (centres undefined)
18 | 37 µM | – | O=C1/C(=C/c2ccncc2)CCc2ccccc21
